Source: patent US20200102264A1, “MARMELIN ANALOGS AND METHODS OF USE IN CANCER TREATMENT” (THE UNIVERSITY OF KANSAS, priority 2014, published 2020)
Entries after “also recorded” stand apart in the source; their conditions may differ.

Columns and labels:
[1] = test system: 253JBV bladder cancer cells; assay: hexoseaminidase cell proliferation assay, 253JBV; assay type: cell-based
Procedure: (§1) Using hexoseaminidase assay, we determined the effect of the compounds on cell proliferation. […] The IC50 value at 48 hours is below 10 μM in all the cancer cell lines.

SW480 cells [2] = assay: colony formation, SW480; assay type: cell-based
[3] = test system: Mst1/2, Lats1/2, YAP1, TEAD1, 2, and 4; assay: Hippo signaling-related proteins; assay type: cell-based; conditions: HCT116 and SW480 cell lines
Description: The Hippo pathway regulates stem cell proliferation, self-renewal, and differentiation. YAP1 is highly expressed gene in stem cells. […] We next determined the effect of THB or THBCD on Hippo signaling-related proteins in the two colon cancer cells.

CAMKII = assay: kinase activity against CAMKII; assay type: biochemical
[4] = test system: MiaPaCa-2 pancreatic cancer cells; assay: hexoseaminidase cell proliferation assay, MiaPaCa-2; assay type: cell-based
Procedure: as §1
(§2) Using hexoseaminidase assay, we determined the effect of the compounds on cell proliferation. […] The MRL16 IC50 value at 48 hours is below 0.3 μM in Colon cancer cell lines. […] Overall, the analogs can be used as chemotherapeutic agents against colon and pancreatic cancer.

CAMKIV = CAMKIV (Homo sapiens, UniProt Q16566); assay: kinase activity against CAMKIV; assay type: biochemical
CAMKIV, sequence (Q16566 whole entry, species assumed): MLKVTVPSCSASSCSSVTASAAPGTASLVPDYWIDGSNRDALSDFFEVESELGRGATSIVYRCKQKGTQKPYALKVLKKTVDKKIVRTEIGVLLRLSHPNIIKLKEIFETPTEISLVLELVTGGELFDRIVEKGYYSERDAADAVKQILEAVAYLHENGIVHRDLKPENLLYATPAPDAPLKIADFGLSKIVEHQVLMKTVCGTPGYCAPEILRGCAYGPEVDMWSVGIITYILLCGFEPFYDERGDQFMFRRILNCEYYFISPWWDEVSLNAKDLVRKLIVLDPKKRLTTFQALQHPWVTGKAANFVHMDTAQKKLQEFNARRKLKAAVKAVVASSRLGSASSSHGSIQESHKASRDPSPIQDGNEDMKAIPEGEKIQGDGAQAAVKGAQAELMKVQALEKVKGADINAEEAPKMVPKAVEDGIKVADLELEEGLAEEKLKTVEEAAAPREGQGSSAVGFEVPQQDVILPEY

[5] = test system: HCT116 colon cancer tumor xenografts; assay: HCT116 colon cancer tumor xenografts in nude mice; assay type: in vivo
Procedure: (§3) For in vivo, HCT116 cells were injected into the blanks of nude mice, after one week when there was a palpable tumor and these compounds were injected intraperitonially (5 mg/kg body weight) every day for 21 days. Tumor volumes were measured weekly. On 29th day mice were euthanized and the tumors were removed and weighed for use in histology, immunohistochemistry, and gene expression studies. Both THB and THBCD inhibited growth of the tumor. It is noted that the images of FIG. 4C are from left to right: control; THB; and THBCD.
as §3, with “DBQ” for “Both THB and THBCD”, “inhibited the” for “inhibited”, “16C” for “4C”, “control;” for “control; THB;”, “DBQ.” for “THBCD.”
FIGS. 19A and 19B show MRL 16 inhibits tumor growth, such as on colon cancer tumor xenografts. For in vivo, HCT116 cells were injected into the blanks of nude mice, after one week when there was a palpable tumor and these compounds were injected intraperitonially (2 mg/kg body weight) every day for 21 days. Tumor volumes were measured weekly. On 29th day mice were euthanized and the tumors were removed and weighed. MRL16 inhibited growth of the tumor.

[6] = test system: colon, pancreatic and bladder cancer cells; assay: hexoseaminidase cell proliferation assay, summaries over cell lines; assay type: cell-based; conditions: dose and time dependent
Procedure: Water solubility studies were performed with the CD/analog complexes. […] The observed IC50 value of THBCD at 48 h is below 10 μM in all the colon, pancreatic and bladder cancer cells.
as §1, §2

cancer stem cells = assay: colonosphere formation; assay type: cell-based
Procedure: It was also determined the analogs inhibit colonosphere formation from cancer stem cells. […] The columns are 0, 10, 25, and 50 micromolar concentrations of the compounds labeled by rows.
The effect of the compounds on colonosphere formation was determined. […] Overall, the analogs have shown they can be used as chemotherapeutic agents against colon, pancreatic and bladder cancer.

[7] = test system: Presenilin, Nicastrin, APH1 and PEN2; assay: γ-secretase complex protein expression; assay type: cell-based
Description: The γ-secretase enzyme complex is made up of four proteins presenilin, nicastrin, APH-1 (anterior pharynx-defective 1), and PEN-2 (presenilin enhancer 2), all of which are essential for activity. Cleavage by the γ-secretase complex releases the Notch intracellular domain (NICD), which in turn translocates into the nucleus of the cells, interacts with the C promoter-binding factor-1 (CBF1) transcriptional cofactor and transactivates target genes, such as those in the hairy and enhancer of split (Hes) and Hes related with YRPW motif (Hey) family proteins. We determined whether the γ-secretase complex comprising of Presenilin, Nicastrin, APH1 and PEN2 is affected.

SW480 cells [8] = assay: cell cycle analysis, SW480; assay type: cell-based; conditions: SW480, Table 3
Procedure: The analogs were tested to determine the ability induce death of colon cancer cells.

[9] = test system: HCT116 colon cancer cells; assay: hexoseaminidase cell proliferation assay, HCT116; assay type: cell-based
Description: Using hexoseaminidase assay, we determined the effect of the compounds on cell proliferation. […]
Using hexoseaminidase assay, we determined the effect of the compounds on cell proliferation. […] […] […] Overall, the analogs can be used as chemotherapeutic agents against colon and pancreatic cancer.

[10] = test system: Cyclin D1, c-Myc, Akt phosphorylation, COX-2, VEGF; assay: western blot analysis, cancer promoting genes; assay type: cell-based; conditions: HCT116 and SW480 cells, 48 h
Procedure: The pathways for apoptosis were studied to determine whether the analogs were capable of inhibiting certain aspects of the pathways. […] HCT116 and SW480 cells treated with MRL, THB, THBCD, DHB, DHBCD and CD for 48 h and performed for western blot analysis. […] It is shown that THBCD also activates caspase 8 and caspase 9. Furthermore, THB and THBCD inhibit anti-apoptotic protein Bcl2 and BclXL levels. […] HCT116 and SW480 cells treated with MRL, THB, THBCD, DHB, DHBCD and CD for 48 h and performed for western blot analysis. Furthermore, THB and THBCD inhibit phosphorylation of Akt (FIG. 3).

DCLK1+ HCT116 cells = assay: flow cytometric analysis of DCLK1+ cells; assay type: cell-based; conditions: flow cytometry
[11] = intraperitoneal 5 mg/kg body weight every day for 21 days

IC50 ([1]; 48 h): 38 µM | IC50 ([1]; 72 h): 15 µM | fold less activity against CAMKII than DCLK1 (CAMKII): 100 fold | IC50 ([4]; MiaPaCa-2, 24 h): > 50 µM | IC50 ([4]; MiaPaCa-2, 48 h): 10 µM | IC50 ([4]; MiaPaCa-2, 72 h): 10 µM | IC50 ([4]; MiaPaCa-2, 72 h, listed as THB): 9 µM | fold less activity against CAMKIV than DCLK1 (CAMKIV): 100 fold | expression of Presenilin, Nicastrin, APH1 and PEN2 [7]: downregulation | IC50 ([9]; HCT116, 24 h): > 50 µM | IC50 ([9]; HCT116, 48 h): 10 µM | IC50 ([9]; HCT116, 72 h): 7.5 µM | IC50 ([9]; HCT116, 72 h, listed as THB): 8 µM
Structure (SMILES): O=C(N/N=C/c1ccc(O)c(O)c1O)c1cc2ccccc2cc1O [MRL THB]
colony formation (SW480 cells [2]): significantly inhibited colony formation | expression of TEAD1, 2, and 4 [3]: significant downregulation | phosphorylation of Mst1/2, Lats1/2 and YAP1 [3]: significantly downregulated | tumor volume [5, 11]: significantly reduced | tumor weight [5, 11]: significantly reduced | phosphorylation of Akt ([5]; tumor tissues): significantly reduced | COX-2, VEGF and cyclin D1 expression ([5]; tumor xenograft tissues, immunohistochemistry and western blot): significantly reduced | angiogenesis by CD31 staining ([5]; xenograft tumor tissues, immunohistochemistry): inhibit | DCLK1 expression ([5]; xenograft tumors, immunohistochemistry and western blot): inhibit | inhibition of cell proliferation (in words) [6]: potent inhibitor; also recorded: inhibit proliferation | colonosphere formation (cancer stem cells): significantly inhibited colonosphere formation | G0/G1 (%) (SW480 cells [8]): 39.5% | G2M (%) (SW480 cells [8]): 26.8% | S (%) (SW480 cells [8]): 21.8% | SubG0 Dead Cells (%) (SW480 cells [8]): 10.8% | COX-2 and VEGF expressions [10]: inhibit | cyclin D1 and c-Myc levels [10]: inhibit | phosphorylation of Akt [10]: inhibit | DCLK1+ cells (DCLK1+ HCT116 cells): significant decrease
